Laboratory results: patent US8853424B2 (Japan Science and Technology Agency, priority 2008, dated 2014)

Tests used:
[1] = test system: Truncated N-terminal huntington 150 Q-EGFP-Neuron 2a cells; test: Measurement of x-Fold (polyglutamine aggregation inhibitory activity); type: cell-based
Description: In the present invention, the polyglutamine aggregation inhibitory activity (x-Fold) can be measured, for example, by the method described in the Example.
The number of the aggregated cells, and the total number of cells were counted by Array Scan V T1 (manufactured by Cellomics, Pittuburg, USA), and the ratio of the aggregated cells to the total number of cells was determined (x-Fold). […]

transglutaminase (TGase) = test: Measurement of TG (TGase inhibitory activity, monodansyl cadaverine / N,N-dimethylcasein fluorescence, FDSS 3000); type: biochemical
In short: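 Compound (1 μL of 10 mM stock) added to 0.1 mL reaction: 100 mM HEPES-NaOH pH 7.5, 1 mM CaCl2, 20 μM monodansyl cadaverine, 0.05 mg/mL N,N-dimethylcasein, 5 μg/mL TGase. Rate of fluorescence change at 340 nm measured; DMSO control set to 100; TG50 is the concentration halving activity.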

[2] = polyglutamine aggregation inhibitory activity, Table 1
[3] = ratio of aggregated cells to total number of cells, compound 20 μM, 20 hr, almost 1 without compound, smaller = stronger inhibition
[4] = TGase activity with compound (10 mM, 1 μL in 0.1 ml enzyme reaction solution), DMSO control taken as 100
[5] = TGase inhibitory activity value, Table 1
[6] = polyglutamine aggregation, Truncated N-terminal huntington 150 Q-EGFP-Neuron 2a cells
[7] = TGase inhibitory activity measurement, unit not given

Row | SMILES | x-Fold [1, 2] | x-Fold [1, 3] | TGase activity remaining (% of DMSO control = 100) (transglutaminase (TGase); [4]) | TGase activity remaining (% of DMSO control = 100) (transglutaminase (TGase); [5]) | x-Fold [1, 6] | TGase activity remaining (% of DMSO control = 100) (transglutaminase (TGase); [7])
1 | OB(c1ccc(C(F)(F)F)cc1)c1c2ccccc2c(B(O)c2ccc(C(F)(F)F)cc2)c2ccccc12 [Example 374] | 1.14 | 1.14 | 17 | 17 | – | –
2 | NCCOB(c1ccc(C(F)(F)F)cc1)c1c2ccccc2c(B(OCCN)c2ccc(C(F)(F)F)cc2)c2ccccc12 [Example 375] | 1.05 | 1.05 | 44 | 44 | – | –
3 | NCCOB(c1cccc(COCc2cccc(B(OCCN)c3cccc4ccccc34)c2)c1)c1cccc2ccccc12 [Example 376, bis(3-(1-naphthylaminoethoxyboryl)benzyl)ether] | 0.93 | 0.93 | 75 | 75 | – | –
4 | CC(C)(C)c1cc(B(OCCN)c2ccccc2)c2c(c1)C(C)(C)c1cc(C(C)(C)C)cc(B(OCCN)c3ccccc3)c1O2 [Example 378, 4,5-di(phenylaminoethoxyboryl)-2,7-di-tert-butyl-9,9-dimethylxanthrene] | 0.79 | 0.79 | 88 | 88 | – | –
5 | OB(c1ccccc1)c1ccc(COCCOc2ccc(B(O)c3ccccc3)cc2)cc1 [Example 379, (4-(phenylhydroxyboryl)phenoxyethyl)(4-(phenylhydroxyboryl)benzyl)ether] | 0.74 | 0.74 | 92 | 92 | – | –
6 | NCCOB(c1ccccc1)c1ccc(COCCOc2ccc(B(OCCN)c3ccccc3)cc2)cc1 [Example 380, (4-(phenylaminoethoxyboryl)phenoxyethyl)(4-(phenylaminoethoxyboryl)benzyl)ether] | 0.67 | 0.67 | 92 | 92 | – | –
7 | OB(c1ccccc1)c1cccc(-c2cccc(B(O)c3ccccc3)n2)n1 [Example 381, 6,6′-(phenylhydroxyboryl)-2,2′-dipyridyl] | 0.80 | 0.80 | 55 | 55 | – | –
8 | NCCOB(c1ccccc1)c1cccc(-c2cccc(B(OCCN)c3ccccc3)n2)n1 [Example 382, 6,6′-(phenylaminoethoxyboryl)-2,2′-dipyridyl] | 0.80 | 0.80 | 76 | 76 | – | –
9 | OB(c1ccccc1)c1ccc(B(O)c2ccccc2)o1 [Example 383, bis(2,5-(phenylhydroxyboryl))furan] | 0.92 | 0.92 | 103 | 103 | – | –
10 | NCCOB(c1ccccc1)c1ccc(B(OCCN)c2ccccc2)o1 [Example 384, bis(2,5-(phenylaminoethoxyboryl))furan] | 1.05 | 1.05 | 60 | 60 | – | –
11 | CN(C)CCOB(c1ccccc1)c1ccc(Oc2ccc(B(OCCN(C)C)c3ccccc3)cc2)cc1 [Example 385, bis(4,4′-(phenyl-N,N-dimethylaminoethoxyboryl)phenyl)ether] | 1.07 | 0.78 | 116 | – | – | –
12 | OB(c1ccccc1)c1ccc2sc3ccc(B(O)c4ccccc4)cc3c2c1 [Example 387, 2,8-di(phenylhydroxyboryl)dibenzothiophene] | 0.73 | 0.73 | 96 | 96 | – | –
13 | c1cc(B(OCC2CCCN2)c2ccc3sc4ccc(B(OCC5CCCN5)c5ccsc5)cc4c3c2)cs1 (stereo not drawn) [Example 389, 2,8-di(3-thiophenyl-2-pyrrolidinomethoxyboryl)dibenzothiophene] | 0.83 | 0.83 | 81 | 81 | – | –
14 | NC(=O)CC(N)C(=O)OB(c1ccccc1)c1ccc(Oc2ccc(B(OC(=O)C(N)CC(N)=O)c3ccccc3)cc2)cc1 (stereo not drawn) [Example 390, bis(4,4′-(phenyl-asparagineboryl)phenyl)ether] | – | 0.59 | 56 | – | – | –
15 | CN(C)CCOB(c1ccccc1)c1ccc(Oc2ccc(B(OCCN(C)C)c3ccc(CO)cc3)cc2)cc1 [Example 392, (4-(phenyl-N,N-dimethylaminoethoxyboryl)phenyl)(4′-(hydroxymethylphenyl-N,N-dimethylaminoethoxyboryl)phenyl)ether] | 0.91 | 0.91 | 83 | 83 | – | –
16 | NC(CCC(=O)O)C(=O)OB(c1ccccc1)c1ccc(Oc2ccc(B(OC(=O)C(N)CCC(=O)O)c3ccc(CO)cc3)cc2)cc1 (stereo not drawn) [Example 393, (4-(phenyl-glutamic acid boryl)phenyl)(4′-(hydroxymethylphenyl-glutamic acid boryl)phenyl)ether] | – | 0.56 | 117 | – | – | –
17 | CN(C)CCOB(c1ccccc1)c1ccc(Oc2ccc(B(OCCN(C)C)c3ccccc3)cc2)cc1 [Example 395, bis(4,4′-(phenyl-N,N-dimethylaminoethoxyboryl)phenyl)ether] | – | 0.86 | 116 | – | – | –
18 | NC(CS)C(=O)OB(c1ccccc1)c1ccc(Oc2ccc(B(OC(=O)C(N)CS)c3ccc(CO)cc3)cc2)cc1 (stereo not drawn) [Example 397, (4-(phenyl-cysteineboryl)phenyl)(4′-(hydroxymethylphenyl-cysteineboryl)phenyl)ether] | – | 0.59 | 70 | – | 0.59 | 70
19 | NCCNCCOB(c1ccccc1)c1ccc(COCc2ccc(B(OCCNCCN)c3ccccc3)cc2)cc1 [Example 399, bis(4,4′-(phenyl-N-aminoethyl-aminoethoxyboryl)benzyl)ether] | – | 0.96 | 53 | – | 0.96 | 53
20 | CNCCOB(c1ccccc1)c1ccc(COCc2ccc(B(OCCNC)c3ccccc3)cc2)cc1 [Example 400, bis(4,4′-(phenyl-N-methylaminoethoxyboryl)benzyl)ether] | – | 1.01 | 52 | – | 1.01 | 52
21 | CN(C)CCOB(c1ccc(COc2ccc(B(OCCN(C)C)c3ccc(C(F)(F)F)cc3)cc2)cc1)c1ccc(C(F)(F)F)cc1 [Example 401, (4′-trifluoromethylphenyl-N,N-dimethylaminoethoxyboryl)-4-phenyl (4′-trifluoromethylphenyl-N,N-dimethylaminoethoxyborylbenzyl)ether] | – | 0.95 | 121 | – | 0.95 | 121
22 | CNCCOB(c1ccc(COc2ccc(B(OCCNC)c3ccc(C(F)(F)F)cc3)cc2)cc1)c1ccc(C(F)(F)F)cc1 [Example 402, (4′-trifluoromethylphenyl-N-methylaminoethoxyboryl)-4-phenyl(4′-trifluoromethylphenyl-N-methylaminoethoxyboryl-4-benzyl)ether] | – | 0.57 | −12 | – | 0.57 | −12
23 | OB(c1ccsc1)c1ccc2sc3ccc(B(O)c4ccsc4)cc3c2c1 [Example 406, 2,8-di(3-thiophenylhydroxyboryl)dibenzothiophene] | – | 0.85 | 61 | – | 0.85 | 61
24 | OB(c1ccc(COCc2ccc(B(O)c3ccc(C(F)(F)F)cc3)cc2)cc1)c1ccc(C(F)(F)F)cc1 [Example 407, bis(4,4′-(p-trifluoromethylphenyl-hydroxyboryl)benzyl)ether] | – | 1.02 | 77 | – | – | –
25 | NCCOB(c1ccccc1)c1ccc2sc3ccc(B(OCCN)c4ccccc4)cc3c2c1 [Example 408, 2,8-di(phenylaminoethoxyboryl)dibenzothiophene] | – | 0.92 | 108 | – | 0.92 | 108
26 | OB(c1ccc(COCc2ccc(B(O)c3ccc(F)c(F)c3)cc2)cc1)c1ccc(F)c(F)c1 [Example 411, bis(4,4′-(3,4-difluorophenyl-hydroxyboryl)benzyl)ether] | – | 0.90 | 138 | – | 0.90 | 138
27 | COc1ccc(B(OCCN(C)C)c2ccc(COCc3ccc(B(OCCN(C)C)c4ccc(OC)cc4)cc3)cc2)cc1 [Example 414, bis(4,4′-(p-methoxyphenyl-N,N-dimethylaminoethoxyboryl)benzyl)ether] | – | 0.90 | 128 | – | 0.90 | 128
